Data published in paper PMC12155096 (International Journal of Molecular Sciences, 2025).
Read-outs that look alike come from different tables or passages of the source.

Columns and labels:
CYP3A4 = CYP3A4 (Homo sapiens, UniProt P08684)
human CYP2C9 [1] = target: T1, human CYP2C9 (Homo sapiens, UniProt P11712)
human CYP2D6 = human CYP2D6 (Homo sapiens, UniProt P10635)
human CYP2C19 [2] = target: T2, human CYP2C19 (Homo sapiens, UniProt P33261)
human CYP1A2 [3] = target: T3, human CYP1A2 (Homo sapiens, UniProt P05177); test: biochemical
T3 sequence (P05177 1-516): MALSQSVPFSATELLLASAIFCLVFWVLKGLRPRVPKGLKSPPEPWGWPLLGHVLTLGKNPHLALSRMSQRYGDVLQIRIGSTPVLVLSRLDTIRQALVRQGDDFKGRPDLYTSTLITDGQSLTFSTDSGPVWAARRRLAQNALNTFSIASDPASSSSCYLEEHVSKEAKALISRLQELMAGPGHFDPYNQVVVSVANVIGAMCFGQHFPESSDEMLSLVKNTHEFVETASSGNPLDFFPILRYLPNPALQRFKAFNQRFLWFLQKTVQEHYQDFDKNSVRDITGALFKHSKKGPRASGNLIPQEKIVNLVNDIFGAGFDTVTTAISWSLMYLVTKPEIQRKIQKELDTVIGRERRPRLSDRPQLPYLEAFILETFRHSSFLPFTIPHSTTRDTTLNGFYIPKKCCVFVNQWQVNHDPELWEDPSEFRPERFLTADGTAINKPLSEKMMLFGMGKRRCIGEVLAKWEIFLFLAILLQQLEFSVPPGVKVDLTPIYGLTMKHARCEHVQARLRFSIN

[4] = target: Photinus pyralis (firefly) luciferase (Photinus pyralis, UniProt P08659); test: biochemical; type: biochemical
human CYP1A2 [5] = target: T3, human CYP1A2; conditions: human
human CYP2C19 [6] = target: T2, human CYP2C19; test: biochemical
human CYP2C9 [7] = target: T1, human CYP2C9; test: biochemical
[8] = CYP1A2 IC50 (half-maximal inhibitory concentration)

T2 sequence (P33261 whole entry): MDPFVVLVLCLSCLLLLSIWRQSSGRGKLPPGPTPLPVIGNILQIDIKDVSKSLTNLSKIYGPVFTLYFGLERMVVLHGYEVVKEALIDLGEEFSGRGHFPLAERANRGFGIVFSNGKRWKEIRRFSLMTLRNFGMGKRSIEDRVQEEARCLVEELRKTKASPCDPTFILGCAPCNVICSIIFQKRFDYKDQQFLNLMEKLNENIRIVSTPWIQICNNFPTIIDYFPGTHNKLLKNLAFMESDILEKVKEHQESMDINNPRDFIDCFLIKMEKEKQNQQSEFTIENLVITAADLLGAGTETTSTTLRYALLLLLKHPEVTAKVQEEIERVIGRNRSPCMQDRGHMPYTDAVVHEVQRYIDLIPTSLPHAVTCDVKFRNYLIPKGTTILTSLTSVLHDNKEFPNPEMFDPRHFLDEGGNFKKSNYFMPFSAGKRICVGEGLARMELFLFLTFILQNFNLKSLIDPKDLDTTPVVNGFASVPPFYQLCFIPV
Sequence of human CYP2D6 (P10635 whole entry): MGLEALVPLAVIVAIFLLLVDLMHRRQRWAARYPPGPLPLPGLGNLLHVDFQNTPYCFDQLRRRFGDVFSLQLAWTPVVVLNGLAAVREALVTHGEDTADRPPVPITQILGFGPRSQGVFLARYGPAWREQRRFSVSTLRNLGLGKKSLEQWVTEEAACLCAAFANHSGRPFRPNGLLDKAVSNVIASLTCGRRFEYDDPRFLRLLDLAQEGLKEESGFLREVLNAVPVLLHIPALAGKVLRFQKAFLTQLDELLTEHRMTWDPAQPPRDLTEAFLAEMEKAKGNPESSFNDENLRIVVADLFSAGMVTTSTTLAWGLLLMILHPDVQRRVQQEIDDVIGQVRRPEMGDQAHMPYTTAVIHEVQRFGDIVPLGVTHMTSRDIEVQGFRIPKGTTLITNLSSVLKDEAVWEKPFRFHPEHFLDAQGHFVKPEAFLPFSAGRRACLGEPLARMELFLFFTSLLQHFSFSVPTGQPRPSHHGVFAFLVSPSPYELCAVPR
Sequence of Photinus pyralis (firefly) luciferase (P08659 whole entry): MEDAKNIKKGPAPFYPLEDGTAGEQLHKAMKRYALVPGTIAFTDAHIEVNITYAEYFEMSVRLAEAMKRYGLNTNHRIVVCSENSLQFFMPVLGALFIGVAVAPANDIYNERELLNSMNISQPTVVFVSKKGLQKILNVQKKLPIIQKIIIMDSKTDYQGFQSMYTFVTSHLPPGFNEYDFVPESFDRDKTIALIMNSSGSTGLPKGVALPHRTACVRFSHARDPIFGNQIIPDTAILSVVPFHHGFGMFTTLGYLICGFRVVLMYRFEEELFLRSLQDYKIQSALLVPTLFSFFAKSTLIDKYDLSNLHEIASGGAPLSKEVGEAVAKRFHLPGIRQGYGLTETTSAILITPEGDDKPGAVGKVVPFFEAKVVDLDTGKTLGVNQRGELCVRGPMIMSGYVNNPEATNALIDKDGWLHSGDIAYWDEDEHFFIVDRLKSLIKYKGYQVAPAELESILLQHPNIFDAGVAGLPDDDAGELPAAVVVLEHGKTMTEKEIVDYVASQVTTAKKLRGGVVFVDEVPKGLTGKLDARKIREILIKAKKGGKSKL
T1 sequence (P11712 whole entry): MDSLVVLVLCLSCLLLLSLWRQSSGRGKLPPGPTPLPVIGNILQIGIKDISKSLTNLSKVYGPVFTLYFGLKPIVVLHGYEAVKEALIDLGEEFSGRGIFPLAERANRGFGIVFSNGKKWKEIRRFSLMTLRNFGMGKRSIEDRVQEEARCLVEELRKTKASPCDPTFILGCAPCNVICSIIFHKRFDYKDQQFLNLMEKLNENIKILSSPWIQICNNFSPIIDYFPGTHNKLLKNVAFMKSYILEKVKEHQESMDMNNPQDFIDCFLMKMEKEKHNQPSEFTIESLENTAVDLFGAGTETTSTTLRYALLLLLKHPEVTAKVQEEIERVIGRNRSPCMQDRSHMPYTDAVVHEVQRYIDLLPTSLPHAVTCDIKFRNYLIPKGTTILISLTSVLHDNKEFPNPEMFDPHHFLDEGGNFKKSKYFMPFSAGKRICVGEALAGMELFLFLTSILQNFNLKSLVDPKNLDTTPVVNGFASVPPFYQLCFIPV
Sequence of CYP3A4 (P08684 whole entry): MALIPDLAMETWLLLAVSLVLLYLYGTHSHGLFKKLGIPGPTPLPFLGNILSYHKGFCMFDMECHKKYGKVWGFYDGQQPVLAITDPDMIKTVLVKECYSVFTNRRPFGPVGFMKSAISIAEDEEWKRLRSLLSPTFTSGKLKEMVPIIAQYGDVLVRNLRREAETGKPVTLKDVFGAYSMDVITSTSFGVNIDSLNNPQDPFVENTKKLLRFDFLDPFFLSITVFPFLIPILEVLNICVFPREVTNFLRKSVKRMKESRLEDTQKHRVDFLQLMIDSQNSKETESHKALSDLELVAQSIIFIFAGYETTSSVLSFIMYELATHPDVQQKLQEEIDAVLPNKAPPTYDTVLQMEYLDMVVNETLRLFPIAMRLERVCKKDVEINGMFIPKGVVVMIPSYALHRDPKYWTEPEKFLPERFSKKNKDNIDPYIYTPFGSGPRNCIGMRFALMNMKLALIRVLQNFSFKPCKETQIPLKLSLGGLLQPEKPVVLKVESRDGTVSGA

Compound	CYP3A4 IC50 (half-maximal inhibitory concentration) (CYP3A4)	CYP2C9 IC50 (half-maximal inhibitory concentration) (human CYP2C9 [1])	CYP2D6 IC50 (half-maximal inhibitory concentration) (human CYP2D6)	CYP2C19 IC50 (half-maximal inhibitory concentration) (human CYP2C19 [2])	IC50 (human CYP1A2 [3]; [8])	Luciferase IC50 (half-maximal inhibitory concentration) [4]	CYP1A2 Efficacy (in parenthesis) (human CYP1A2 [5])	CYP3A4 IC50 (CYP3A4)	CYP2D6 IC50 (human CYP2D6)	IC50 (human CYP1A2 [3]; CYP1A2 IC50)	Luciferase IC50 [4]	CYP2C9 IC50 (human CYP2C9 [1])	CYP2C19 IC50 (human CYP2C19 [2])	further results
Nc1c(Br)cc(Br)c2c1C(=O)c1ccccc1C2=O [1-Amino-2,4-dibromoanthraquinone]	Inactive	Inactive	Inactive	Inactive	140 nM	Inactive	0.14 ± 0.03 (-99 ± 12) %	–	–	–	–	–	–	–
O=C1c2ccccc2C(=O)c2cc(Cl)ccc21 [2-Chloroanthraquinone]	Inactive	Inactive	Inactive	Inactive	–	Inactive	–	–	–	–	–	–	–	IC50 (human CYP1A2 [3]): 110 ± 30 nM
Brc1c2ccccc2c(Br)c2ccccc12 [9,10-Dibromoanthracene]	Inactive	Inactive	Inactive	Inactive	410 nM	Inactive	0.41 ± 0.27 (-85 ± 6) %	–	–	–	–	–	–	–
Brc1cc2ccccc2c2ccccc12 [9-Bromophenanthrene]	Inactive	–	Inactive	–	320 nM	Inactive	0.32 ± 0.09 (-101 ± 1) %	–	–	–	–	–	–	CYP2C9 Efficacy (in parenthesis) (human CYP2C9 [1]; human): 56.84 ± 0 (-53 ± 6) %; IC50 (human CYP2C19 [6]; CYP2C19 IC50 (half-maximal inhibitory concentration)): 29400 nM; IC50 (human CYP2C9 [7]; CYP2C9 IC50 (half-maximal inhibitory concentration)): 56800 nM; CYP2C19 Efficacy (in parenthesis) (human CYP2C19 [2]; human): 29.42 ± 9.47 (-107 ± 13) %
N#Cc1c2ccccc2cc2ccccc12 [9-Cyanoanthracene]	–	–	–	–	–	–	–	Inactive	Inactive	220 nM	Inactive	–	–	IC50 (human CYP2C19 [6]; CYP2C19 IC50): 16000 nM; IC50 (human CYP2C9 [7]; CYP2C9 IC50): 6160 nM
c1ccc2cc3ccccc3cc2c1 [Anthracene]	–	–	–	–	–	–	–	Inactive	Inactive	500 nM	Inactive	Inactive	–	IC50 (human CYP2C19 [6]; CYP2C19 IC50): 67000 nM
O=C1c2ccccc2C(=O)c2ccccc21 [Anthraquinone]	Inactive	Inactive	Inactive	Inactive	230 nM	Inactive	0.23 ± 0.06 (-96 ± 3) %	–	–	–	–	–	–	–
c1ccc2c(c1)cc1ccc3cccc4ccc2c1c34 [Benzo(a)pyrene]	–	–	–	–	–	–	–	Inactive	Inactive	300 nM	–	–	Inactive	IC50 (human CYP2C9 [7]; CYP2C9 IC50): 23400 nM; IC50 [4]: 16400 nM
c1cc2ccc3ccc4ccc5cccc6c(c1)c2c3c4c56 [Benzo(g,h,i)perylene]	–	–	–	–	–	–	–	Inactive	Inactive	160 nM	Inactive	Inactive	Inactive	–
c1ccc2cc3c(cc2c1)-c1cccc2cccc-3c12 [Benzo(k)fluoranthene]	–	–	–	–	–	–	–	Inactive	Inactive	170 nM	Inactive	Inactive	Inactive	–
CC(C)(Cc1c[nH]c2ccccc12)NCC(O)COc1ccccc1C#N (centres unmarked) [Bucindolol]	Inactive	Inactive	–	Inactive	–	Inactive	–	–	–	–	–	–	–	IC50 (human CYP1A2 [3]): 29200 ± 2380 nM
c1ccc2c(c1)ccc1c3ccccc3ccc21 [Chrysene]	–	–	–	–	–	–	–	Inactive	Inactive	650 nM	Inactive	Inactive	Inactive	–
c1ccc2cc3c4ccccc4c4ccccc4c3cc2c1 [Dibenz[a,c]anthracene]	–	–	–	–	–	–	–	Inactive	Inactive	210 nM	Inactive	Inactive	Inactive	–
